Laboratory results published in patent US20130204033A1, “ANTIPROLIFERATIVE COMPOUNDS, CONJUGATES THEREOF, METHODS THEREFOR, AND USES THEREOF” (Medarex, Inc., priority 2009, published 2013).
pEC50: −log10 of the molar value. Read-outs that look alike come from different tables or passages of the source.

How the values were obtained:
Type in all cases: cell-based, human
SK-BR3 = test: 3H thymidine proliferation assay, SK-BR3; conditions: 3H thymidine method, 72 h incubation
Description: (§1) This example generally describes the procedures used to assay the antiproliferative activity of compounds of this invention or their conjugates. Human tumor cell lines were obtained from the American Type Culture Collection (ATCC), P.O. Box 1549, Manassas, Va. 20108, USA, and cultured according to instruction from the ATCC. Cells were seeded at 1.0×10^3 or 1.0×10^4 cells/well in 96-well plates for 3 h for ATP assays or ^3H thymidine assays, respectively. 1:3 serial dilutions of free (unconjugated) compounds or their conjugates were added to the wells. Plates were allowed to incubate for 24 to 72 h. The ^3H thymidine plates were pulsed with 1.0 μCi of ^3H-thymidine per well for the last 24 hours of the total incubation period, harvested, and read on a Top Count Scintillation Counter (Packard Instruments, Meriden, Conn.). ATP levels in the ATP plates were measured using the […]-GLO® Luminescent Cell Viability kit following the manufacturer's manual and read on a GLOMAX® 20/20 luminometer (both from Promega, Madison, Wis., USA). The EC50 values—the concentration at which an agent inhibits or reduces cell proliferation by 50% —were determined using PRISM™ software, version 4.0 (GraphPad Software, La Jolla, Calif., USA).
(§2) Using the ^3H thymidine or the ATP luminescence assay, or both, the activities of compounds of this invention were assayed against the following cancer cell lines: HCT-15 (colorectal cancer, multi-drug resistant (MDR)); Hep3B (liver cancer); LNCaP (prostate cancer, androgen receptor positive (AR^+)); MDA-MB-231 (breast cancer, estrogen receptor, progesterone receptor, and Her2 negative (triple negative)); A2058 (melanoma); U-87 MG (glioblastoma); NCI-H460 (NSCLC); A549 (NSCLC); HPAC (pancreatic cancer, primary); PC3 (prostate cancer, AR); BT474 (breast cancer, Her2 highly positive (Her2hi)); SKOV3 (ovarian cancer, Her2hi); 786-O (renal cancer); UO-31 (renal cancer, MDR); NCI-H740 (SCLC); DMS53 (SCLC); SK-BR3 (breast cancer, Her2hi); ZR-75 (breast cancer, estrogen receptor positive); OVCAR3 (ovarian cancer); HL-60 (APL); OVCAR8/Adr (ovarian cancer, MDR); CEM-Cl (ALL); Nomo-1 (AML); RPMI-8226 (MM)); Raji (lymphoma); SW-480 (colorectal cancer, metastatic); SW-620 (colorectal cancer); and H226 (lung cancer). (Not all compounds were assayed against all cell lines.)
(§3) Table 2 provides the data for proliferation assays using the ^3H thymidine method, with an incubation period of 72 h.

OVCAR3 [1] = test: 3H thymidine proliferation assay, OVCAR3
Description: as §1, §2, §3

HCT-15 = test: ATP luminescence proliferation assay, HCT-15
Description: as §1, §2
(§4) Table 3 provides the data for the ATP luminescence proliferation assays, with an incubation period of 48, 72, or 96 h, as noted.

SW-480 = test: ATP luminescence proliferation assay, SW-480
Description: as §1, §2, §4

OVCAR3 [2] = test: ATP luminescence proliferation assay, OVCAR3
Description: as §1, §2, §4

RPMI-8226 = test: 3H thymidine proliferation assay, RPMI-8226
Description: as §1, §2, §3

HL-60 [3] = test: ATP luminescence proliferation assay, HL-60
Description: as §1, §2
FIGS. 12a and 12b show illustrative plots for ATP luminescence proliferation assays for a second set of compounds of this invention, against HL-60 and 786-O cells, respectively, with an incubation period of 72 h. FIGS. 12c and 12d show the plots for ^3H thymidine proliferation assays for the same set of compounds, again against HL-60 and 786-O cells, respectively, with a 72 h incubation period. In each instance, doxorubicin was used as a comparative compound.
as §4

PC3 = test: 3H thymidine proliferation assay, PC3
Description: as §1, §2, §3

HL-60 [4] = test: 3H thymidine proliferation assay, HL-60
Description: as §1, §2, §3

NCI-H460 = test: ATP luminescence proliferation assay, NCI-H460
Description: as §1, §2, §4

ZR-75 = test: ATP luminescence proliferation assay, ZR-75
Description: as §1, §2, §4

UO-31 = test: 3H thymidine proliferation assay, UO-31
Description: as §1, §2, §3

U-87 MG = test: ATP luminescence proliferation assay, U-87 MG
Description: as §1, §2, §4

SW-620 = test: ATP luminescence proliferation assay, SW-620
Description: as §1, §2, §4

CEM-Cl = test: ATP luminescence proliferation assay, CEM-C1
Description: as §1, §2, §4

Raji = test: 3H thymidine proliferation assay, Raji
Description: as §1, §2, §3

786-O = test: 3H thymidine proliferation assay, 786-O
Description: as §1, §2, §3

[5] = Homo sapiens, OVCAR-3, read-out: EC50, OVCAR3, 3H thymidine method, 72 h incubation
[6] = Homo sapiens, HCT-15, 48 h, read-out: EC50 HCT-15 (48 h), ATP luminescence, HCT-15, 48 h incubation
[7] = Homo sapiens, SW480, 96 h, read-out: EC50 SW480 (96 h), ATP luminescence, SW480, 96 h incubation
[8] = Homo sapiens, OVCAR-3, 48 h, read-out: EC50 OVCAR3 (48 h), ATP luminescence, OVCAR3, 48 h incubation
[9] = Homo sapiens, RPMI-8226, read-out: EC50, RPMI-8226, 3H thymidine method, 72 h incubation
[10] = Homo sapiens, HL-60, 72 h, read-out: EC50 HL-60 (72 h), ATP luminescence, HL-60, 72 h incubation
[11] = Homo sapiens, PC-3, read-out: EC50, PC3, 3H thymidine method, 72 h incubation
[12] = Homo sapiens, HL-60, read-out: EC50, HL-60, 3H thymidine method, 72 h incubation
[13] = Homo sapiens, NCI-H460, 48 h, read-out: EC50 NCI-H460 (48 h), ATP luminescence, NCI-H460, 48 h incubation
[14] = Homo sapiens, ZR75, 48 h, read-out: EC50 ZR-75 (48 h), ATP luminescence, ZR-75, 48 h incubation
[15] = Homo sapiens, UO-31, read-out: EC50, UO-31, 3H thymidine method, 72 h incubation
[16] = Homo sapiens, 72 h, read-out: EC50 U-87 MG (72 h), ATP luminescence, U-87 MG, 72 h incubation
[17] = Homo sapiens, SW-620, 96 h, read-out: EC50 SW-620 (96 h), ATP luminescence, SW-620, 96 h incubation
[18] = Homo sapiens, CEM/C1, 72 h, read-out: EC50 CEM-C1 (72 h), ATP luminescence, CEM-C1, 72 h incubation
[19] = Homo sapiens, Raji, read-out: EC50, Raji, 3H thymidine method, 72 h incubation
[20] = 3H thymidine method, 72 h incubation, read-out: EC50, 786-O
[21] = 3H thymidine method, 72 h incubation, read-out: EC50, OVCAR3
[22] = ATP luminescence, HCT-15, 48 h incubation, read-out: EC50 HCT-15 (48 h)
[23] = ATP luminescence, SW480, 96 h incubation, read-out: EC50 SW480 (96 h)
[24] = ATP luminescence, OVCAR3, 48 h incubation, read-out: EC50 OVCAR3 (48 h)
[25] = 3H thymidine method, 72 h incubation, read-out: EC50, RPMI-8226
[26] = ATP luminescence, HL-60, 72 h incubation, read-out: EC50 HL-60 (72 h)
[27] = 3H thymidine method, 72 h incubation, read-out: EC50, PC3
[28] = 3H thymidine method, 72 h incubation, read-out: EC50, HL-60
[29] = ATP luminescence, NCI-H460, 48 h incubation, read-out: EC50 NCI-H460 (48 h)
[30] = ATP luminescence, ZR-75, 48 h incubation, read-out: EC50 ZR-75 (48 h)
[31] = 3H thymidine method, 72 h incubation, read-out: EC50, UO-31
[32] = ATP luminescence, 72 h incubation, read-out: EC50 U-87 MG (72 h)
[33] = ATP luminescence, SW-620, 96 h incubation, read-out: EC50 SW-620 (96 h)
[34] = ATP luminescence, CEM-C1, 72 h incubation, read-out: EC50 CEM-C1 (72 h)
[35] = 3H thymidine method, 72 h incubation, read-out: EC50, Raji

SMILES	pEC50 (SK-BR3; Homo sapiens, SK-BR-3)	pEC50 (OVCAR3 [1]; [5])	pEC50 (HCT-15; [6])	pEC50 (SW-480; [7])	pEC50 (OVCAR3 [2]; [8])	pEC50 (RPMI-8226; [9])	pEC50 (HL-60 [3]; [10])	pEC50 (786-O; [20])	pEC50 (OVCAR3 [1]; [21])	pEC50 (SW-480; [23])	pEC50 (OVCAR3 [2]; [24])	pEC50 (RPMI-8226; [25])	pEC50 (HL-60 [3]; [26])	pEC50 (PC3; [27])	pEC50 (HL-60 [4]; [28])	pEC50 (UO-31; [31])	pEC50 (U-87 MG; [32])	pEC50 (SW-620; [33])	pEC50 (CEM-Cl; [34])	pEC50 (Raji; [35])	also measured
CC[C@H](C)[C@H](NC(=O)[C@H]1CCCCN1C)C(=O)N(C)[C@H](C[C@@H](OC)c1nc(C(=O)NC(Cc2ccccc2)C[C@H](C)C(=O)O)cs1)C(C)C (some centres unmarked) [Compound 15]	7.77	< 7.00	7.40	8.25	< 7.00	8.48	8.57	–	–	–	–	–	–	–	–	–	–	–	–	–	pEC50 (PC3; [11]): 8.77; pEC50 (HL-60 [4]; [12]): 9.22; pEC50 (NCI-H460; [13]): 8.17; pEC50 (ZR-75; [14]): 7.89; pEC50 (UO-31; [15]): 7.82; pEC50 (U-87 MG; [16]): 8.07; pEC50 (SW-620; [17]): 8.43; pEC50 (CEM-Cl; [18]): 8.59; pEC50 (Raji; [19]): 9.33
CC[C@H](C)[C@H](NC(=O)[C@H]1CCCCN1C)C(=O)N(C)[C@H](C[C@@H](OC)c1nc(C(=O)N[C@@H](Cc2ccccc2)C(=O)OC)cs1)C(C)C [Compound 16]	–	–	–	–	–	–	–	7.72	< 7.00	7.32	< 7.00	7.66	8.55	< 7.00	8.05	< 7.00	< 7.00	7.54	8.60	7.55	pEC50 (SK-BR3): < 7.00; pEC50 (HCT-15; [22]): 6.80; pEC50 (NCI-H460; [29]): 7.16; pEC50 (ZR-75; [30]): 7.96
CCCC(NC(=O)c1csc([C@@H](C[C@H](C(C)C)N(C)C(=O)[C@@H](NC(=O)[C@H]2CCCCN2C)[C@@H](C)CC)OC)n1)C(=O)OC (some centres unmarked) [Compound 17]	< 7.00	< 7.00	6.35	7.04	< 7.00	7.33	8.13	–	–	–	–	–	–	–	–	–	–	–	–	–	pEC50 (786-O; Homo sapiens, 786-0, read-out: EC50, 786-O, 3H thymidine method, 72 h incubation): 7.49; pEC50 (PC3; [11]): 7.09; pEC50 (HL-60 [4]; [12]): 7.77; pEC50 (NCI-H460; [13]): 7.16; pEC50 (ZR-75; [14]): 7.62; pEC50 (UO-31; [15]): < 7.00; pEC50 (U-87 MG; [16]): 7.66; pEC50 (SW-620; [17]): 7.19; pEC50 (CEM-Cl; [18]): 7.59; pEC50 (Raji; [19]): 7.28
CC[C@H](C)[C@H](NC(=O)[C@H]1CCCCN1C)C(=O)N(C)[C@H](C[C@@H](OC(C)=O)c1nc(C(=O)N[C@@H](Cc2ccc(N)cc2)C(=O)O)cs1)C(C)C [Compound 56]	–	–	–	–	–	–	–	7.54	< 7.00	< 7.00	< 7.00	< 7.00	< 7.00	< 7.00	< 7.00	< 7.00	< 7.00	7.55	< 7.00	< 7.00	pEC50 (SK-BR3): < 7.00; pEC50 (HCT-15; [22]): < 5.52; pEC50 (NCI-H460; [29]): < 7.00; pEC50 (ZR-75; [30]): < 7.00
CC[C@H](C)[C@H](NC(=O)[C@H]1CCCCN1C)C(=O)N(COC(=O)CC(C)C)[C@H](C[C@@H](OC(C)=O)c1nc(C(=O)N[C@@H](Cc2ccccc2)C[C@H](C)C(=O)O)cs1)C(C)C [Tub D, tubulysin D, reference compound]	–	–	–	–	–	–	–	9.82	10.29	10.70	10.07	10.43	11.02	10.42	10.49	10.00	11.27	11.24	11.52	10.89	pEC50 (HCT-15; ATP luminescence, HCT-15, 72 h incubation, read-out: EC50 HCT-15 (72 h)): 10.85; pEC50 (NCI-H460; ATP luminescence, NCI-H460, 72 h incubation, read-out: EC50 NCI-H460 (72 h)): 11.12; pEC50 (ZR-75; ATP luminescence, ZR-75, 72 h incubation, read-out: EC50 ZR-75 (72 h)): 10.47
